Results from patent US20050203169A1, “Methods and compositions for treating diseases associated with excesses in ACE” (priority 2001, published 2005).
Like-named read-outs stand apart in the source and are kept apart here.

Assays:
[1] = system: patients with kidney failure; assay: Clinical observations in patients with kidney failure; assay type: in vivo, human
serum potassium = system: serum potassium
Text: As described above, fludrocortisone acetate ([…]) can be used to control serum K+ concentration. […] Diabetes Technology & Therapeutics. […] This can be easily achieved using […] (fludrocortisone acetate; see Table A).

[2] = system: patient with end-stage COPD; assay: Outcome for patient with COPD on ramipril
hemodialysis patients = assay: Ramipril in hemodialysis patients with ESRD due to hypertension; assay type: in vivo, human; settings: 5 mg/day; two black hemodialysis patients
circulating ACE = molecular target: T1, circulating ACE (Homo sapiens, UniProt P12821); settings: cited from earlier work; for circulating ACE inhibited: 5 mg dose; for inhibition of enzyme activity: equal amount (5 mg)
T1 construct: from tissue; host or cells: circulation (blood, plasma or serum) of dosed subjects

[3] = molecular target: ACE (hydrophobic and hydrophilic active site) (Homo sapiens, UniProt P12821); settings: cited from earlier work
new cases of NIDDM = settings: HOPE study (NEJM Jan. 21, 2000); cited from earlier work
[4] = system: patients with CRF (serum creatinine of at least 2 mg/dl); assay: Time to Dialysis in patients with chronic renal failure; assay type: in vivo, human; settings: conventional Rx <40 mg/d
Description: Outcomes data for patients with CRF due to hypertension, determined as Time to Dialysis, for patients with serum creatinine of at least 2 mg/dl at the first clinic visit:
The following are the expected differences in outcomes for patients with CRF due to NIDDM, determined as Time to Dialysis, for patients with serum creatinine of at least 2 mg/dl at the first clinic visit:
The following are the expected differences in outcomes for patients with ADPKD, determined as Time to Dialysis, for patients with serum creatinine of at least 2 mg/di at the fist clinic visit.

[5] = compared with ramipril; cited from earlier work
[6] = system: blood pressure (index of maximum tissue ACE inhibition); settings: rats, IV; cited from earlier work
[7] = system: patients on ACE inhibitors; settings: cited from earlier work

T1 sequence (P12821 30-1232 limits assumed): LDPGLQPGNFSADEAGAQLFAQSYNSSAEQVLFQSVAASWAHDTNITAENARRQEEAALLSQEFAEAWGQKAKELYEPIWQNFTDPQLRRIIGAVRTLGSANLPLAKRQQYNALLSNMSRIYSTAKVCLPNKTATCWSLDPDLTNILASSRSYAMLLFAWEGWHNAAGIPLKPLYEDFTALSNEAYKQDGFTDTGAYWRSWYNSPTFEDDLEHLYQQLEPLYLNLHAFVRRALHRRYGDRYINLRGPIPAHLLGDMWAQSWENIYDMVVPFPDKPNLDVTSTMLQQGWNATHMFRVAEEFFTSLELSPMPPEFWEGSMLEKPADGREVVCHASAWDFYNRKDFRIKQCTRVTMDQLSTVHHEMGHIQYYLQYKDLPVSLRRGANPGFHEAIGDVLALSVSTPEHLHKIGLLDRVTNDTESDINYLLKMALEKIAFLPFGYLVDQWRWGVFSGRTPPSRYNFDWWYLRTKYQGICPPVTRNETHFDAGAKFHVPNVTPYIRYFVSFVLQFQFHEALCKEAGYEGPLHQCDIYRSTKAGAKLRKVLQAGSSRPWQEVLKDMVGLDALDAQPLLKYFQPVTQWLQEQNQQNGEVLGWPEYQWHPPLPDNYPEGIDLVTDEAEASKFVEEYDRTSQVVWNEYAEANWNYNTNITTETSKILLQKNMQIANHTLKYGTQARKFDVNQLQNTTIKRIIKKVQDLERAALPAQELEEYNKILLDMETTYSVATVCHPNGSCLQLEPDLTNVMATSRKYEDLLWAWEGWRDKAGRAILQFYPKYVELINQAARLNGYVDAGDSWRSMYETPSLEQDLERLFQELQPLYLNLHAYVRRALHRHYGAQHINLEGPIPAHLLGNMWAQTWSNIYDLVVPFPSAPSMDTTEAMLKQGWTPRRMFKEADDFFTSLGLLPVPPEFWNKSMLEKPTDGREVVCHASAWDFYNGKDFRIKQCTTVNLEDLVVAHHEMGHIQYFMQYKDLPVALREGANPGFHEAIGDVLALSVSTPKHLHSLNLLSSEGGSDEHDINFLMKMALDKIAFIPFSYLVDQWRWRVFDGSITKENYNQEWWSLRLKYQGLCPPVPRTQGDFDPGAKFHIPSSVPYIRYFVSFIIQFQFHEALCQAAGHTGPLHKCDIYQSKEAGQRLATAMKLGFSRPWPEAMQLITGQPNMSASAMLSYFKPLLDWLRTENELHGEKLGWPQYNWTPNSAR
Sequence of ACE (hydrophobic and hydrophilic active site) (P12821 30-1306): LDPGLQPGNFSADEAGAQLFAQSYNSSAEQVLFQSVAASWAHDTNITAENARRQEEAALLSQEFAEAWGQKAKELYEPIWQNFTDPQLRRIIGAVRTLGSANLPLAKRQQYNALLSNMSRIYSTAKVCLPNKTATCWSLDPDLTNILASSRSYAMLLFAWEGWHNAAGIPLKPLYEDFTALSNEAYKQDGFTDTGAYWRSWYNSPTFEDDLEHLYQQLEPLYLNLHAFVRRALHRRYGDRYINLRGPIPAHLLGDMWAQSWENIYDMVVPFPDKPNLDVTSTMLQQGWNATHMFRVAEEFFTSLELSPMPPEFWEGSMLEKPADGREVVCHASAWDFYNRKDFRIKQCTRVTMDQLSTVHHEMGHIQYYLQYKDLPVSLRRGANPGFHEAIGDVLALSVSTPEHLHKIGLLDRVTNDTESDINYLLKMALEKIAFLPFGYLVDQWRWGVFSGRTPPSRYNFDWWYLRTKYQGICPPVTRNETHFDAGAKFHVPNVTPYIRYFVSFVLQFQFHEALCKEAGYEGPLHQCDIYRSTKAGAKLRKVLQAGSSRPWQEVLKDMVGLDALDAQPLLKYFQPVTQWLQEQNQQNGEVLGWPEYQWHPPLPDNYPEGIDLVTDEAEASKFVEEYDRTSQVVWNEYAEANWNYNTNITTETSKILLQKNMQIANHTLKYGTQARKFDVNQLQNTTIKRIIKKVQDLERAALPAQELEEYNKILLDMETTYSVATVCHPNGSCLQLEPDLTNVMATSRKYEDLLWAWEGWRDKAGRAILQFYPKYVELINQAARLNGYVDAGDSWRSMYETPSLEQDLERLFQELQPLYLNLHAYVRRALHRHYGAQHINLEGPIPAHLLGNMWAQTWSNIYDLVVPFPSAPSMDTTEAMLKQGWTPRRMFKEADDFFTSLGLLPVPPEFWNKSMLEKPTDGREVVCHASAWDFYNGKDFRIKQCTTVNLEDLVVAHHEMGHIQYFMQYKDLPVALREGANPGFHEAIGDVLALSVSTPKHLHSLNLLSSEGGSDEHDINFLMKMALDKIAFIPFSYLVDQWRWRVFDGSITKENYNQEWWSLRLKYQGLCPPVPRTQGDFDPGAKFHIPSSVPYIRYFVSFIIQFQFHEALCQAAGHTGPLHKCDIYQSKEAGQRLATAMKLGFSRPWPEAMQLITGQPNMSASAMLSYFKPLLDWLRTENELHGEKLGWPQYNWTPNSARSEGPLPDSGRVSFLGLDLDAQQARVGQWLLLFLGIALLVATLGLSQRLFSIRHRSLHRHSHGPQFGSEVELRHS

With `CCCCc1nc(Cl)c(CO)n1Cc1ccc(-c2ccccc2-c2nn[nH]n2)cc1` [Losartan] the “benefit when added to QUINAPRIL” value ([1]; 50 mg/day, patients with kidney failure) was “no added benefit” and the “effect on serum potassium” value (serum potassium; combined with an ACE inhibitor) was “elevation of serum potassium”.

With `CCOC(=O)C1=C(COCCN)NC(C)=C(C(=O)OC)C1c1ccccc1Cl` (stereo not drawn) [Amlodipine] the “adverse event when added for BP control” value ([2]; COPD patient on ramipril) was “Developed CHF”.

For `CC(=O)OCC(=O)[C@@]1(O)CC[C@H]2[C@@H]3CCC4=CC(=O)CC[C@]4(C)[C@@]3(F)[C@@H](O)C[C@@]21C` [Florinef, fludrocortisone acetate], the “volume (fluid) retention” value (serum potassium; in vivo) was “# retention and congestive heart failure. Clinical observation indicates that volume retention occurs with daily FLORINEF but not with less-than-daily use, even up to five times a week”, the “serum potassium under adequate control” value (serum potassium; same daily dose despite higher dose of ACE inhibitor) was “below 5.3 mEq/l” and the “control of serum potassium” value (serum potassium; up to 0.1 mg daily, chronic renal failure patients on high dose ACE inhibitor (e.g. 2 mg/kg/day quinapril)) was “could control serum potassium”.

In the case of `CCOC(=O)[C@H](CCc1ccccc1)N[C@@H](C)C(=O)N1[C@H](C(=O)O)C[C@@H]2CCC[C@@H]21` [ramipril], the serum glucose (hemodialysis patients) is given as 40 mg/dL, the serum potassium (hemodialysis patients) is given as “above 6 mEq/l” and the “circulating ACE inhibited” value (circulating ACE) is given as 97%. For the same compound, the “inhibition of enzyme activity” value (circulating ACE) was “greater than 95%”, the “off-rate t(1/2)” value ([3]; hydrophobic active site) was about 24 h and the “new cases of NIDDM” value (new cases of NIDDM) was “prevention of new cases of NIDDM”. For the same compound, the FEV1 ([2]; 8/99, baseline 0.87 L) was 0.83 L, the BP ([2]; currently on 600 mg/d) was 135/80 and the “effect on pulmonary hypertension” value ([2]; emphysema (COPD)) was “appears to lower pulmonary hypertension”. For the same compound, the non-fluid weight gain ([2]; human, in vivo) was 25 lb, the hospitalization ([2]; period of over five years) was “Hospitalized for CHF but not for COPD” and the BP ([2]; two weeks after start of 2.5 mg/d, first seen with BP 104/60) was 180/110.

In the case of `CCOC(=O)[C@H](CCc1ccccc1)N[C@@H](C)C(=O)N1CCC[C@H]1C(=O)O` [enalapril], the “circulating ACE inhibited” value (circulating ACE) is listed as 47%, the “inhibition of enzyme activity” value (circulating ACE) is listed as 50% and the “off-rate t(1/2)” value ([3]; hydrophilic site in the circulating form of the enzyme) is listed as about 4 h.

In the case of `CCOC(=O)[C@H](CCc1ccccc1)N[C@@H](C)C(=O)N1Cc2ccccc2C[C@H]1C(=O)O` [quinapril], the “Time to Dialysis” value ([4]; ADPKD, Caucasian men) was 8.8 yr, the “Time to Dialysis” value ([4]; CRF due to NIDDM, African American men) was 3.3 yr and the “Time to Dialysis” value ([4]; CRF due to NIDDM, Caucasian men) was 2.7 yr. For the same compound, the “Time to Dialysis” value ([4]; CRF due to hypertension, African American men) was 3.6 yr, the “Time to Dialysis” value ([4]; CRF due to hypertension, Caucasian men) was 4.3 yr and the “serum creatinine on treatment” value ([1]; Patient, 20 mg/day given hs, decreased from 4.5) was 1.7 mg/di. For the same compound, the “slowing down kidney failure” value ([1]; comparison of quinapril with ramipril) was “superior to RAMIPRIL”, the “off-rate t(1/2)” value ([3]; hydrophobic active site) was about 24 h and the “octanol: water partition coefficient” value [5] was “higher”. The “dose at which maximum blood pressure lowering occurred” value [6] was 3 mg/kg, the dose-toxicity curve ([7]; from 5 mg/day to 80 mg/day) was “flat” and the “patients with elevation of mood” value ([7]; use by 12,000 patients) was 20%.
